Results: patent publication US20100015111A1, “Methods And Kits For The Treatment Inhibition, And Maintenance Of Gastrointestinal Disorders” (priority 2008, published 2010)

Tested on: dextran sulfate salt (DSS) induced chronic ulcerative colitis in male Swiss-Webster mice
Assay: Olsalazine on dextran sulfate salt (DSS) induced chronic ulcerative colitis in mice
Format: in vivo
Settings: for survival to necropsy day: 3% DSS days 0-14, 15% in disease controls; for mean body weight loss at study end: 3% DSS, disease control lost 3.90 g; for colon content score (mean, scale 0-3) / mean colon length / inhibition of decreased colon length: day 14; for colon content score (mean, scale 0-3): disease control mean 2.67; for mean colon length: normal 10.60, disease control 6.33; for inhibition of decreased colon length: vs disease control
Procedure: A study was conducted to determine the effect of Olsalazine on dextran sulfate salt (DSS) induced chronic ulcerative colitis in male Swiss-Webster mice. Groups of 20 male Swiss-Webster mice were allowed ad libitum access to Olsalazine qd beginning on day −3 and then continued daily (qd) or every two days (q2d) starting on day 0 and continuing through day 14. Dipentum®, Olsalazine Sodium is a sodium salt of salicylate, disodium 3,3′-azobis(6-hydroxybenzoate) and when exposed to colonic bacteria converts to mesalamine. In this animal model, male Swiss-Webster mice are exposed to DSS (3% days 0-14) to induce inflammation and gland loss with erosion in the colon.
Dextran sulfate, molecular weight 40-50,000 (sodium salt, Spectrum Chemicals, New Brunswick, N.J., Lot#RA1107) was stored at room temperature until added to appropriate volumes of tap water to prepare sufficient 3% DSS solutions. Prepared solutions were stored at 4° C. and added to water bottles daily. Every 3rd day, water in all bottles was discarded and replaced with fresh DSS preparations or tap water (normal controls). Dipentum® (Olsalazine Sodium) was received from the sponsor in hard gelatin capsule form. Capsules were received and each capsule contained 250 mg. On study day −3, 51 capsules were opened (˜12.75 grams) and the contents of each were consolidated into a labeled vial. Appropriate amounts of the beige-orange compound was then added to 250 ml water bottles so that each bottle would contain ˜0.83 mg/ml Olsalazine suspension in the water.
• Male Swiss-Webster mice weighing approximately 22-29 grams on day (−)3 were obtained from Harlan, Inc (Indianapolis, Ind.). Animals were identified by color-coded dots at the base of the tail delineating group and animal number. After randomization, all cages were labeled with protocol number, group and animal numbers with appropriate color-coding.
Animals (5/group/normal control, 20/group for diseased treated), housed 5/cage, were given 3.0% DSS in their water from test days 0-14. Olsalazine treatment was initiated on day −3 and continued daily through day 14, or on days −3, −2, −1, 0, 2, 4, 6, 8, 10, 12, and 14 for the q2d group. Animals were terminated on day 14. • Experimental groups were as follows:
Animals were weighed on study days −3 to 14. On day 14 mice were weighed, euthanized, and the entire colon was removed and the length determined. The colons were scored for gross changes using the following criteria:
0=normal, no blood observed
2=semi-solid to fluid stool
3=semi-solid with definite evidence of blood, bloody fluid or no content
Only animals that survived to study termination were included in the analysis of terminal colon lengths and scores.
For each surviving animal, the entire colon (proximal and distal) was trimmed into 8 equally spaced pieces for processing and embedding. Sections were stained with hemotoxylin and eosin (H&E). For each colon section, submucosal edema was quantified by measuring the distance (mm) from the muscularis mucosa to the internal border of the outer muscle layer in representative areas of edema. The extent of inflammation (foamy macrophages, lymphocytes and polymorphonuclear cell infiltrate) was assigned severity scores according to the following ranking:
The parameters reflecting epithelial cell loss/damage were scored individually using a percent area involved scoring method:
Parameters that were scored using the above percent involvement scale include: • 1) Colon glandular loss—includes crypt epithelial as well as remaining gland epithelial loss. • 2) Colon erosion—reflects loss of surface epithelium and generally is associated with mucosal hemorrhage (seen clinically and at necropsy).
Mucosal epithelial hyperplasia (basophilia, mitotic figures, multi-layered on basement membranes, absence of goblet cells) was scored 0-5 based on the following criteria […]

[1] = Olsalazine ad libitum, q2d, compared to disease controls
[2] = Olsalazine ad libitum, q2d, histopathology day 14, non significant
[3] = Olsalazine ad libitum, qd, histopathology day 14
[4] = Olsalazine ad libitum, qd, histopathology day 14, non significant
[5] = Olsalazine ad libitum, qd, histopathology day 14, significant

O=C([O-])c1cc(N=Nc2ccc(O)c(C(=O)[O-])c2)ccc1O.[Na+].[Na+] [Olsalazine, disodium 3,3′-azobis(6-hydroxybenzoate)]
survival to necropsy day (Olsalazine ad libitum in water (~0.83 mg/ml), every day (qd), day -3 to 14): 75%
survival to necropsy day (Olsalazine ad libitum, every other day (q2d): days -3,-2,-1,0,2,...14): 50%
mean body weight loss at study end (Olsalazine ad libitum, q2d): 3.10 g
inhibition of mean hyperplasia score [1]: 11%
inhibition of mucosal thickness [1]: 17%
colon content score (mean, scale 0-3) (Olsalazine ad libitum, q2d): 2.70
mean colon length (Olsalazine ad libitum, q2d): 7.1 cm
inhibition of decreased colon length (Olsalazine ad libitum, q2d): 18%
inhibition of colon gland loss (Olsalazine ad libitum, q2d, histopathology day 14): 32%
inhibition of colon edema [2]: 21%
inhibition of colon erosion [2]: 27%
inhibition of colon inflammation [2]: 27%
inhibition of sum colon histopathologic score [2]: 29%
mean body weight loss at study end (Olsalazine ad libitum, qd): 4.78 g
inhibition of mean hyperplasia score (Olsalazine ad libitum, qd, compared to disease control): 16%
colon content score (mean, scale 0-3) (Olsalazine ad libitum, qd): 2.33
mean colon length (Olsalazine ad libitum, qd): 7.33 cm
inhibition of decreased colon length (Olsalazine ad libitum, qd): 23%
inhibition of colon erosion [3]: 32%
inhibition of increase of mucosal thickness [3]: 32%
inhibition of colon edema [4]: 22%
inhibition of sum colon histopathologic score [4]: 35%
inhibition of colon gland loss [5]: 32%
inhibition of colon inflammation [5]: 33%
